# Results from patent US11814367B2, “Inhibitors of glycogen synthase 1 (GYS1) and methods of use thereof” (Maze Therapeutics, Inc., priority 2021, dated 2023).
# pIC50: −log10 of the molar value.
# Target: hGYS1 enzyme (recombinant hGYS1/GN1 protein) (Homo sapiens (Human), UniProt P13807)
# Test: GYS1 coupled enzyme assay (PK/LDH)
# Type: biochemical
# Details: hGYS1/GN1 50 nM, UDP-Glucose 0.8 mM, G6P 1 mM; geometric mean of at least 2 runs
# Chain of hGYS1 enzyme (recombinant hGYS1/GN1 protein) (P13807 whole entry): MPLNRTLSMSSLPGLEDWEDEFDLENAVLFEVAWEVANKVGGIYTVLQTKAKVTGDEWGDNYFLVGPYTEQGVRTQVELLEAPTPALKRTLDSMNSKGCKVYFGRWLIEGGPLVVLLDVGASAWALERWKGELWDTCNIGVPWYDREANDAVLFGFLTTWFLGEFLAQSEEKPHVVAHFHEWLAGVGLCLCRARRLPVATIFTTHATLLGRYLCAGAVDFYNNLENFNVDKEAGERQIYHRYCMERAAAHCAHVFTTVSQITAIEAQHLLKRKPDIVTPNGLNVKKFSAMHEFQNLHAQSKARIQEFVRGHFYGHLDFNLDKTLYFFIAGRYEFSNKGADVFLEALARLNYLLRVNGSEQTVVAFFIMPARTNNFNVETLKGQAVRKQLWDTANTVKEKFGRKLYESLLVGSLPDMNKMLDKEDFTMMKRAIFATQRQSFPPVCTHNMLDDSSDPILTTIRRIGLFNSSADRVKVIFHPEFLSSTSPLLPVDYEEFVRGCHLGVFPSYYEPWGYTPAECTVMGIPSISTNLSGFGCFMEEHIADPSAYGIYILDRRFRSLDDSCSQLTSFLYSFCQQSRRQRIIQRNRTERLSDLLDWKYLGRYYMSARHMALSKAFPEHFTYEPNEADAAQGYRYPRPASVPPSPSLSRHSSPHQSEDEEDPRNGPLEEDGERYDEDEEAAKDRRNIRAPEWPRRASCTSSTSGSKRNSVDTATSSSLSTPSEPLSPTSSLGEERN
# Chain of hGYS1 enzyme (recombinant hGYS1/GN1 protein) (P46976 whole entry partner): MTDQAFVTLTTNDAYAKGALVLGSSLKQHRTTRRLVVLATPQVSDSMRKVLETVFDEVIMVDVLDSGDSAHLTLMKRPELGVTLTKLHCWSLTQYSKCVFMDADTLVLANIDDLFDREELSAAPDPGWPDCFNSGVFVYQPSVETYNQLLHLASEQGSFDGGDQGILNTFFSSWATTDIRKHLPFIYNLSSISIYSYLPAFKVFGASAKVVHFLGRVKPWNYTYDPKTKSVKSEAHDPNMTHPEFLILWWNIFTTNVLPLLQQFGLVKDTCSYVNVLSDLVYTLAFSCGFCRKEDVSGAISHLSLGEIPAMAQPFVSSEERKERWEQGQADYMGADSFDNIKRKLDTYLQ
row,Structure (SMILES),pIC50
1,"CC(=O)N1C2CCC1CC(C(=O)N1C[C@H](F)C[C@H]1C(=O)N[C@@H](c1ccccc1)c1ccc(C(C)C)cc1)C2 (stereo partly drawn) [Compound 175, (2S,4R)-1-{8-acetyl-8-azabicyclo[3.2.1]octane-3-carbonyl}-4-fluoro-N-[(S)-phenyl[4-(propan-2-yl)phenyl]methyl]pyrrolidine-2-carboxamide]",6.24
2,"CC(=O)N1CCC2(CCCC2C(=O)N2C[C@H](F)C[C@H]2C(=O)N[C@@H](c2ccccc2)c2ccc(C(C)C)cc2)C1 (stereo partly drawn) [Compound 182, (2S,4R)-1-{2-acetyl-2-azaspiro[4.4]nonane-6-carbonyl}-4-fluoro-N-[(S)-phenyl[4-(propan-2-yl)phenyl]methyl]pyrrolidine-2-carboxamide]",6.13
3,"CC(=O)N1[C@H](C(=O)N[C@@H](c2ccccc2)c2ccc(C(C)C)cc2)C[C@@H]2C[C@@H]21 [Compound 199, (1S,3S,5S)-2-acetyl-N-[(S)-phenyl[4-(propan-2-yl)phenyl]methyl]-2-azabicyclo[3.1.0]hexane-3-carboxamide]",5.92
4,"CC(=O)N1[C@@H]2C[C@@H]2C[C@H]1C(=O)N[C@@H](c1ccccc1)c1ccc(C(C)C)cc1 [Compound 200, (1R,3S,5R)-2-acetyl-N-[(S)-phenyl[4-(propan-2-yl)phenyl]methyl]-2-azabicyclo[3.1.0]hexane-3-carboxamide]",5.35
5,"CC(C)c1ccc([C@@H](NC(=O)[C@@H]2C[C@@H](F)CN2C(=O)Cc2cnoc2)c2ccccc2)cc1 [Compound 230, (2S,4R)-4-fluoro-1-[2-(1,2-oxazol-4-yl)acetyl]-N-[(S)-phenyl[4-(propan-2-yl)phenyl]methyl]pyrrolidine-2-carboxamide]",6.93
6,"CC(C)c1ccc([C@@H](NC(=O)[C@@H]2C[C@@H](F)CN2C(=O)CN2CCNCC2)c2ccccc2)cc1 [Compound 234, (2S,4R)-4-fluoro-N-[(S)-phenyl[4-(propan-2-yl)phenyl]methyl]-1-[2-(piperazin-1-yl)acetyl]pyrrolidine-2-carboxamide]",6.16
7,"CC(=O)N1CCN(CC(=O)N2C[C@H](F)C[C@H]2C(=O)N[C@@H](c2ccccc2)c2ccc(C(C)C)cc2)CC1 [Compound 235, (2S,4R)-1-[2-(4-acetylpiperazin-1-yl)acetyl]-4-fluoro-N-[(S)-phenyl[4-(propan-2-yl)phenyl]methyl]pyrrolidine-2-carboxamide]",6.47
8,"CC(C)c1ccc([C@@H](NC(=O)[C@@H]2C[C@@H](F)CN2C(=O)C(C)(C)O)c2ccccc2)cc1F [Compound 327, (2S,4R)-4-fluoro-N-[(S)-[3-fluoro-4-(propan-2-yl)phenyl](phenyl)methyl]-1-(2-hydroxy-2-methylpropanoyl)pyrrolidine-2-carboxamide]",6.92
9,"CC(C)c1ccc([C@H](NC(=O)[C@@H]2C[C@@H](F)CN2C(=O)Cc2nnn[nH]2)c2ccccc2)cc1F [Compound 329, (2S,4R)-4-fluoro-N-[(R)-[3-fluoro-4-(propan-2-yl)phenyl](phenyl)methyl]-1-[2-(1H-1,2,3,4-tetrazol-5-yl)acetyl]pyrrolidine-2-carboxamide]",6.47
10,"CC(C)c1ccc([C@@H](NC(=O)[C@@H]2C[C@@H](F)CN2C(=O)Cc2[nH]nnc2N2CCN(C(=O)OC(C)(C)C)CC2)c2ccccc2)cc1F [Compound 370, tert-butyl 4-(5-{2-[(2S,4R)-4-fluoro-2-{[(S)-[3-fluoro-4-(propan-2-yl)phenyl](phenyl)methyl]carbamoyl}pyrrolidin-1-yl]-2-oxoethyl}-1H-1,2,3-triazol-4-yl)piperazine-1-carboxylate]",6.24
11,"CC(=O)N1[C@@H](C)CC[C@H]1C(=O)N[C@@H](c1ccccc1)c1ccc(C2CC2)c(F)c1 [Compound 419, (2S,5S)-1-acetyl-N-[(S)-(4-cyclopropyl-3-fluorophenyl)(phenyl)methyl]-5-methylpyrrolidine-2-carboxamide]",5.66
12,"CC(=O)N1[C@H](C(=O)N[C@@H](c2ccccc2)c2ccc(C3CC3)c(F)c2)C[C@@H]2C[C@@H]21 [Compound 420, (1S,3S,5S)-2-acetyl-N-[(S)-(4-cyclopropyl-3-fluorophenyl)(phenyl)methyl]-2-azabicyclo[3.1.0] hexane-3-carboxamide]",5.45
13,"O=C(N[C@@H](c1ccccc1)c1ccc(C2CC2)c(F)c1)[C@@H]1C[C@@H](F)CN1C(=O)Cc1nnc(C2CC2)o1 [Compound 429, (2S,4R)-1-[2-(5-cyclopropyl-1,3,4-oxadiazol-2-yl)acetyl]-N-[(S)-(4-cyclopropyl-3-fluorophenyl)(phenyl)methyl]-4-fluoropyrrolidine-2-carboxamide]",6.94
14,"O=C(N[C@@H](c1ccccc1)c1ccc(C2CC2)c(F)c1)[C@@H]1C[C@@H](F)CN1C(=O)Cc1ccon1 [Compound 438, (2S,4R)-N-[(S)-(4-cyclopropyl-3-fluorophenyl)(phenyl)methyl]-4-fluoro-1-[2-(1,2-oxazol-3-yl)acetyl]pyrrolidine-2-carboxamide]",6.52
15,"O=C(N[C@@H](c1ccccc1)c1ccc(C2CC2)c(F)c1)[C@@H]1[C@H]2C[C@H]2CN1C(=O)Cc1cnn[nH]1 [Compound 440, (1S,2S,5R)-N-[(S)-(4-cyclopropyl-3-fluorophenyl)(phenyl)methyl]-3-[2-(1H-1,2,3-triazol-5-yl)acetyl]-3-azabicyclo[3.1.0] hexane-2-carboxamide]",6.35
16,"NCc1nnc(CC(=O)N2C[C@H](F)C[C@H]2C(=O)N[C@@H](c2ccccc2)c2ccc(C3CC3)c(F)c2)o1 [Compound 489, (2S,4R)-1-{2-[5-(aminomethyl)-1,3,4-oxadiazol-2-yl]acetyl}-N-[(S)-(4-cyclopropyl-3-fluorophenyl)(phenyl)methyl]-4-fluoropyrrolidine-2-carboxamide]",6.45
17,"CC(C)c1ccc([C@H](NC(=O)[C@@H]2C[C@@H](F)CN2C(=O)Cc2cnn[nH]2)c2cccc(F)c2)cc1F [Compound 647, (2S,4R)-4-fluoro-N-[(R)-[3-fluoro-4-(propan-2-yl)phenyl](3-fluorophenyl)methyl]-1-[2-(1H-1,2,3-triazol-5-yl)acetyl]pyrrolidine-2-carboxamide]",5.78
18,"C#CCCCCCC(=O)N1CCC[C@H]1C(=O)N[C@@H](c1ccccc1)c1ccc(C(C)C)cc1 [Compound 701, (2S)-1-(oct-7-ynoyl)-N-[(S)-phenyl[4-(propan-2-yl)phenyl]methyl]pyrrol-idine-2-carboxamide]",6.35

# Now from value to compound:
row,pIC50,Structure (SMILES)
1,6.39,"CC(=O)N1C[C@@H]2CC[C@H]1C(C(=O)N1C[C@H](F)C[C@H]1C(=O)N[C@@H](c1ccccc1)c1ccc(C(C)C)cc1)C2 (stereo partly drawn) [Compound 176, (2S,4R)-1-[(1S,4R)-2-acetyl-2-azabicyclo[2.2.2]octane-6-carbonyl]-4-fluoro-N-[(S)-phenyl[4-(propan-2-yl)phenyl]methyl]pyrrolidine-2-carboxamide]"
2,6.35,"CC(=O)N1CCCC(C)(C(=O)N2C[C@H](F)C[C@H]2C(=O)N[C@@H](c2ccccc2)c2ccc(C(C)C)cc2)CC1 (stereo partly drawn) [Compound 181, (2S,4R)-1-(1-acetyl-4-methylazepane-4-carbonyl)-4-fluoro-N-[(S)-phenyl[4-(propan-2-yl)phenyl]methyl]pyrrolidine-2-carboxamide]"
3,7.01,"CC(C)c1ccc([C@@H](NC(=O)[C@@H]2C[C@@H](F)CN2C(=O)C(O)CO)c2ccccc2)cc1 (stereo partly drawn) [Compound 186, (2S,4R)-1-(2,3-dihydroxypropanoyl)-4-fluoro-N-[(S)-phenyl[4-(propan-2-yl)phenyl]methyl]pyrrolidine-2-carboxamide]"
4,6.33,"CC(C)c1ccc([C@@H](NC(=O)[C@@H]2CCCN2C(=O)CO)c2ccccc2)cc1 [Compound 211, (2S)-1-(2-hydroxyacetyl)-N-[(S)-phenyl[4-(propan-2-yl)phenyl]methyl]pyrrolidine-2-carboxamide]"
5,7.02,"CC(=O)NCC(=O)N1CCC[C@H]1C(=O)N[C@@H](c1ccccc1)c1ccc(C(C)C)cc1 [Compound 212, (2S)-1-(2-acetamidoacetyl)-N-[(S)-phenyl[4-(propan-2-yl)phenyl]methyl]pyrrolidine-2-carboxamide]"
6,5.42,"CC(=O)N1[C@H](C)CC[C@H]1C(=O)N[C@@H](c1ccccc1)c1ccc(C(C)C)cc1 [Compound 215, (2S,5R)-1-acetyl-5-methyl-N-[(S)-phenyl[4-(propan-2-yl)phenyl]methyl]pyrrolidine-2-carboxamide]"
7,6.11,"CC(C)c1ccc([C@@H](NC(=O)[C@@H]2CCC3(CC3)N2C(=O)Cc2cnn[nH]2)c2ccccc2)cc1F [Compound 341, (5S)-N-[(S)-[3-fluoro-4-(propan-2-yl)phenyl](phenyl)methyl]-4-[2-(1H-1,2,3-triazol-5-yl)acetyl]-4-azaspiro[2.4]heptane-5-carboxamide]"
8,5.94,"CC(=O)N1C[C@H](F)C[C@H]1C(=O)N[C@@H](c1ccc(C(C)C)cc1)c1ccn[nH]1 [Compound 614, (2S,4R)-1-acetyl-4-fluoro-N-[(S)-[4-(propan-2-yl)phenyl](1H-pyrazol-5-yl)methyl]pyrrolidine-2-carboxamide]"
9,6.32,"CC(=O)Nc1cccc([C@H](NC(=O)[C@@H]2C[C@@H](F)CN2C(=O)Cc2cn(C)nn2)c2ccc(C(C)C)cc2)c1 [Compound 649, (2S,4R)-N-[(R)-(3-acetamidophenyl) [4-(propan-2-yl)phenyl]methyl]-4-fluoro-1-[2-(1-methyl-1H-1,2,3-triazol-4-yl)acetyl]pyrrolidine-2-carboxamide]"
10,5.69,"Cc1cc(C(C)C)ccc1[C@@H](NC(=O)[C@@H]1C[C@@H](F)CN1C(=O)Cc1ncco1)c1ccccc1 [Compound 663, (2S,4R)-4-fluoro-N-[(S)-[2-methyl-4-(propan-2-yl)phenyl](phenyl)methyl]-1-[2-(1,3-oxazol-2-yl)acetyl]pyrrolidine-2-carboxamide]"
11,5.67,"COc1ccc(C2CC2C(=O)N2C[C@H](F)C[C@H]2C(=O)N[C@@H](c2ccccc2)c2ccc(C(C)C)cc2)cc1 (stereo partly drawn) [Compound 703, (2S,4R)-4-fluoro-1-[2-(4-methoxyphenyl)cyclopro-panecarbonyl]-N-[(S)-phenyl[4-(propan-2-yl)phenyl]methyl]pyrrol-idine-2-carboxamide]"
